Values quoted from earlier work as cited in patent US7316771B2, “Medium for analytic and preparative electrophoresis” (Becton, Dickinson and Company, priority 2000, dated 2008).
Several values for one entry are separate records, joined by “and”; a condition that tells them apart may be missing. Identical values can stand only once.

Settings: substance used as acid in the medium

pKa (Acid) | SMILES
11.8 | Oc1ccccn1 [2-Hydroxy-Pyridine]
11.2 | Oc1ccncc1 [4-Hydroxy-Pyridine]
4.5 | CC(C)C(=O)O [Isobutyric Acid]
5.5 | O=C(O)c1ccccn1 [Picolinic Acid]

Same assay, conditions: substance used as acid in the medium; listed as 2-hydroxy pyridine

pKa (Acid) | SMILES
11.6 | Oc1ccccn1 [2-Hydroxy-Pyridine]

Same assay, conditions: substance used as base in the medium

pKa (Base) | SMILES
2.3 and 2.2 | CCC(N)C(=O)O (centres unmarked) [2-Amino Butyric Acid]
1.8 | C[N+](C)(C)CC(=O)O [Betaine]
2.7 | CN(CC(=O)O)C(=N)N [Creatine]
4.8 | CN1CC(=O)NC1=N [Creatinine]
3.1 | NCC(=O)NCC(=O)O [Glycyl Glycine]
3.1 | NC(=O)c1cccnc1 [Nicotinic Acid Amide]
